Experimental data reported in patent EP0167943A2, “Benzimidazole derivatives, process for their preparation, and their use as pharmaceuticals” (BEECHAM GROUP PLC, priority 1984, dated 1986).

System: gastric acid secretion
Assay: perfused rat stomach preparation (histamine-stimulated acid secretion, perfusate pH)
Type: in vivo, male Wistar rats
Conditions: bolus intravenous injection, maximal reduction in hydrogen-ion concentration as percentage of control, histamine infusion, urethane anaesthetised rat
Method: The ability of the compounds of the invention to modify the pH of gastric acid secretion was investigated as follows:
The perfused rat stomach preparation
The lumen of the stomach of male Wistar rats (approximately 200 g bodyweight) was perfused, via a cannula designed to reduce the dead space of the stomach, with 5% glucose solution (37^00) at the rate of 3 ml/min. The perfusate was forced over the surface of the secretory mucosa only, the antrum being excluded. The effluent then passed over a microflow type glass pH electrode via collecting funnel situated in the non-glandular forestomach.
The secretagogue histamine was administered as a constant intravenous infusion to produce a steady rate of acid secretion. Test compounds were administered in solution as bolus intravenous injections and any effect on the pH of the perfusate noted. The perfusate pH was recorded on a potentiometric recorder and anti-secretory responses were measured in terms of the maximal reduction in hydrogen-ion concentration expressed as a percentage of the 'control' concentrations.

Molecule: 2-[(4-[3,5-dichlorobenzyloxy]-3-methylpyrid-2-yl)methyl sulphinyl]benzimidazole [Example 8b]
- Inhibition (dose 2 (µmol/kg)): 80%

Molecule: Cc1c(OCc2ccccc2)ccnc1C[S+]([O-])c1nc2ccccc2[nH]1 (centres unmarked) [Example 1b, 2-[(4-Benzyloxy-3-methylpyrid-2-yl)methylsulphinyl]-benzimidazole]
- Inhibition (dose 0.5 µmol/kg): 82%

Molecule: COc1ccc(COc2ccnc(C[S+]([O-])c3nc4ccccc4[nH]3)c2C)cc1 (centres unmarked) [Example 7b, 2-[(4-[4-methoxybenzyloxy]-3-methylpyrid-2-yl)methylsulphinyl]benzimidazole]
- Inhibition (dose 2 (µmol/kg)): 86%

Molecule: Cc1c(OCc2ccc(F)cc2)ccnc1C[S+]([O-])c1nc2ccccc2[nH]1 (centres unmarked) [Example 10b, 2-[(4-[4-Fluorobenzyloxy]-3-methylpyrid-2-yl)methylsulphinyl]benzimidazole]
- Inhibition (dose 1 (µmol/kg)): 80%

Molecule: [O-][S+](Cc1cc(OCCc2ccccc2)ccn1)c1nc2ccccc2[nH]1 (centres unmarked) [Example 18b, 2-[(4'-Phenethyloxypyrid-2-yl)methylsulphinyl]benzimidazole]
- Inhibition (dose 2 (µmol/kg)): 100%

Molecule: Cc1c(Oc2ccccc2)ccnc1C[S+]([O-])c1nc2ccccc2[nH]1 (centres unmarked) [Example 20b, 2-[(3-Methyl-4-phenoxypyrid-2-yl)methylsulphinyl]-benzimidazole]
- Inhibition (dose 2 (µmol/kg)): 72%

Molecule: [O-][S+](Cc1cc(OCc2ccc(F)cc2)ccn1)c1nc2ccccc2[nH]1 (centres unmarked) [Example 21b, 2-[(4-(4-Fluorobenzyloxy)pyrid-2-yl)methylsuphinyl]-benzimidazole]
- Inhibition (dose 2 (µmol/kg)): 100%

Molecule: Cc1cnc(C[S+]([O-])c2nc3ccccc3[nH]2)cc1OCc1ccccc1 (centres unmarked) [Example 24b]
- Inhibition (dose 2.5 (µmol/kg)): 91%
